Experiments:
[1] = test system: AS-30D hepatoma mitochondria; assay: Oxygen consumption of isolated mitochondria; type: biochemical, rat; parameters: Net State 3 oxygen consumption rate: unit not given here; details: Hepatoma mitochondria, 5 mM Glutamate/0.1 mM Malate
Description: AS-30D hepatocarcinoma cells were propagated in the peritoneal cavity of 200–250 g weight female Wistar rats by intra-peritoneal inoculation of 3 mL of a cellular suspension containing approximately 4 × 10^8 cells/mL [36]. After 5–6 days, the rats were sacrificed by cervical dislocation and AS-30D ascites liquid was extracted from peritoneal area with a sterile syringe and collected in 50 mL-plastic tubes. The hepatoma cells were harvested by centrifugation and washed once by centrifugation in KR buffer. For mitochondria isolation from AS-30D hepatoma, cells were permeabilized with digitonin (Sigma Aldrich, CA, USA) at 10–40 μg/mg cellular protein concentration.
(§1) Respiration of AS-30D, liver and heart mitochondria (1 mg protein/mL) was assayed oxygraphically with a Clark-type O2 electrode in KME (120 mM KCl, 20 mM Mops, 1 mM EGTA) buffer pH 7.2 plus 2 mM KH2PO4, and different oxidizable substrates (as indicated in Results). For state 3 respiration, 600 nmol ADP were added. Mitochondria were incubated at 37°C with Aur and MA for 30–60 s before substrates were added. At the end of each respiratory measurement, dithionite was added to get the chemical zero oxygen signal.
(§2) Isolated mitochondria (1mg protein/mL) were incubated in KME buffer (120 mM KCl, 20 mM MOPS, 1 mM EGTA) pH 7.20 plus 2 mM KH2PO4 and the indicated oxidizable substrates. For state 3 (ADP-stimulated) respiration, 300-600 nmol ADP were added. RC, respiratory control; n=3. To get the maximal reduction of molecular oxygen (zero oxygen concentration), sodium dithionite (Na2O4S2) was added at the end of each measurement.

Rat Liver Mitochondria = assay: Oxygen consumption of isolated mitochondria; type: biochemical; details: Rat Liver Mitochondria, 5 mM Glutamate/5 mM Malate
Description: Rat liver (RLM) and heart (RHM) mitochondria were isolated as described previously by differential centrifugation.
as §1, §2

[2] = test system: HeLa, MDA-MB-231 and MDA-MB-468 cells; assay: Energy metabolism pathway fluxes in intact cancer cells, pooled; type: cell-based, human; details: MA 6–50 μM (Table 2); 24 h
Description: For glycolysis flux, cells (3 mg protein/mL) were incubated in KR buffer. Glycolysis was started by adding 5 mM external glucose (Sigma-Aldrich, MO, USA), and cellular samples were withdrawn after 0 and 10 min of incubation at 37°C under smooth orbital shaking. At the indicated times, the cells were rapidly mixed with 3% (w/v) ice-cold perchloric acid and centrifuged. The supernatants were neutralized with 1N KOH/100mM Tris. To rule out lactate production by glutaminolysis, cells were also incubated with 10 mM 2-deoxyglucose (Sigma-Aldrich, MO, USA). Lactate was determined by a standard method with lactate dehydrogenase (Roche, Mannheim, Germany) following the NADH formation at 340 nm.
For oxidative phosphorylation (OxPhos) flux, cells (2–5 mg protein/mL) were incubated at 37°C in air saturated KR medium plus 5 mM glucose. […] The net OxPhos rate was determined by using a Clark type electrode, as previously described and by using a high-resolution respirometer (Oroboros Instruments, Innsbruck, Austria) at 37°C. The contribution of OxPhos and glycolysis to the cellular ATP supply was determined, respectively, from the net OxPhos rate (oligomycin-sensitive respiration) multiplied by the ATP/O or P»/O2 ratio that corresponds to 2.5 or 5, and from the rate of lactate production, assuming a stoichiometry of 1 mol of ATP produced per 1 mol of lactate produced.

Cc1ccc(Cl)c(Nc2ccccc2C(=O)O)c1Cl [MA, Meclofenamic acid]
Net State 3 oxygen consumption rate ([1]; 5 μM MA): 26 ± 13 | Pseudo State 4 oxygen consumption rate ([1]; 5 μM MA): 19 ± 4 (3) | RC (State 3/ State 4) ([1]; 5 μM MA): 1 (3) | State 3 oxygen consumption rate ([1]; 5 μM MA): 45 ± 10 (3) | State 4 oxygen consumption rate ([1]; 5 μM MA): 45 ± 10 (3) | Net State 3 oxygen consumption rate ([1]; 10 μM MA): 0 | RC (State 3/ State 4) ([1]; 10 μM MA): 1 (3) | State 3 oxygen consumption rate ([1]; 10 μM MA): 36 ± 7 (3) | State 4 oxygen consumption rate ([1]; 10 μM MA): 36 ± 7 (3) | Pseudo State 4 oxygen consumption rate ([1]; 10 μM MA, in nmol O2/min/mg protein): 45 ± 15 (3) | Net State 3 oxygen consumption rate (Rat Liver Mitochondria; 10 μM MA): 81 (1) | Pseudo State 4 oxygen consumption rate (Rat Liver Mitochondria; 10 μM MA): 32.5 (1) | RC (Rat Liver Mitochondria; 10 μM MA): 8.6 (1) | State 3 oxygen consumption rate (Rat Liver Mitochondria; 10 μM MA): 113.5 (1) | State 4 oxygen consumption rate (Rat Liver Mitochondria; 10 μM MA): 13.5 (1) | Net State 3 oxygen consumption rate (Rat Liver Mitochondria; 50 μM MA): 61 ± 27 | Pseudo State 4 oxygen consumption rate (Rat Liver Mitochondria; 50 μM MA): 42 ± 15 (3) | RC (Rat Liver Mitochondria; 50 μM MA): 2.1 ± 0.2 (3) | State 3 oxygen consumption rate (Rat Liver Mitochondria; 50 μM MA): 102 ± 23 (3) | State 4 oxygen consumption rate (Rat Liver Mitochondria; 50 μM MA): 50 ± 17 (3) | inhibition of OxPhos flux [2]: 31–66%

— article PMC11407620, “Repurposing auranofin and meclofenamic acid as energy-metabolism inhibitors and anti-cancer drugs” (PLOS ONE, 2024)
